Data set [1] deals with T1, aFGF (Homo sapiens, UniProt P05230).
T1 construct: The recombinant derived, 140 amino add form is the preferred form of aFGF; N-terminal methionine (MetHaFGF); made in house; host or cells: microbial cells (preferred embodiment)
Description: Thermal denaturation (Tm) of aFGF by circular dichroism. The note with it: for Tm of aFGF (maximum Tm induced by ligand), circular dichroism: PBS pH 7.2, excess ligand (1-3X by weight; 120 mM sodium sulfate, 10 mM tetrapolyphosphate). Format: biochemical. The procedure:
Circular Dichroism (CD) spectra are measured with an AVIV 62 DS spectropolarimeter. Samples of aFGF at about 100 μg/ml in a PBS buffer (6 mM sodium phosphate, 120 mM NaCl, pH 7.2) containing various ligands are placed into 1 mm pathlength cells and the cell temperature is controlled by circulating a water/ethylene glycol mixture through the cell holder. Thermal denaturation is carded out under computer control by increasing the temperature of the water bath in 2° C. increments, followed by a two-minute equilibration period at each temperature to allow the sample to reach thermal equilibrium. Reproducibility of the midpoint of these temperature melting curves (Tm) is ±2° C.
The maximum Tm values induced by 12 different ligands as determined by circular dichroism measurements at 228 nm are summarized in the first column of Table II. All of these ligands stabilize aFGF by 15°-25° C. in a manner similar to that originally observed with heparin. […] Furthermore, sulfate unions are found near analogous residues in the crystal structure of basic FGF, Eriksson et al., Proc. Natl. Acad. Sd. USA 88:3441-3445 (1991); Zhang et al., Proc. Natl. Acad. Sci. USA 88:3446-3450 (1991). Consequently, it seemed important to examine the ability of these ligands to stabilize aFGF during thermal denaturation as monitored by both fluorescence and circular dichroism. The Tm value of aFGF increased from 27° C. to 43° C. (fluorescence)and 45° C. to 51° C. (CD) when a 100 molar excess (3X by weight) of (IrCl6)^-3 was present. Similarly, sulfate union (120 mM) produced a species that was even more dramatically stabilized, melting at 57° C. (CD).
^(a) Thermal melting temperatures were measured by circular dichroism
Samples contained […] aFGF in PBS buffer pH 7.2 with excess ligand
(1-3× by weight except for 120 mM sodium sulfate and 10 mM

For data set [2], the target named is T1, aFGF. Description: Thermal denaturation (Tm) of aFGF by fluorescence spectroscopy. Format: biochemical. The note with it: PBS pH 7.2. The method, then: Fluorescence spectra are obtained with a Spex Fluorolog-2 spectrofiuorometer using a 1 mm pathlength cuvette. Band passes from 1-2 nm are employed with sample absorptivities maintained below 0.1 at 280 nm. The temperature is controlled either manually or automatically as described above. Reproducibility of thermal denaturation temperatures (Tm) is ± 2° C.
To more directly ascertain the effect of heparin on aFGF stability, the temperature-induced denaturation of aFGF as a function of heparin concentration was monitored by fluorescence spectroscopy. Fluorescence spectra were obtained with a Spex Fluorolog-2 spectrofiuorometer using a 1 mm pathlength cuvette. Band passes from 1-2 nm were employed with sample absorptivities maintained below 0.1 at 280 nm. The temperature was controlled either manually or automatically as described above. Reproducibility of thermal denaturation temperatures (Tm) was ±2° C. […] Experiments were carried out at 100 μg/ml protein (6.3 μM) in a PBS buffer at pH 7.2. Curve drawn through data points for clarity only.
Studies of the stabilization of aFGF by heparin are difficult to interpret because of the inherent heterogeneity of heparin preparations, Lane and Lindahl, Eds. Heparin, Chemical and Biological Properties, Clinical Applications, Edward Arnold, London (1989); Jackson, et al., Physiol. Rev. 71: 481-539 (1991). In order to better understand the polyanionic stabilization of aFGF, a series of well-defined fragments of heparin were examined for their ability to stabilize aFGF against thermal denaturation. These enzymatically prepared and purified fragments varied in size from a disaccharide to a decasaccharide. Each fragment was incubated with aFGF at a 1:1 weight ratio in a PBS buffer. The sample was then stressed by temperature and structural changes in aFGF were monitored by both circular dichroism and fluorescence spectroscopy. […] All samples contained 100 μg/ml aFGF (6.3 μM)in a PBS buffer (pH 7.2) with 100 μg/ml of each heparin fragment.
Since these fragments of heparin have a well-defined molecular weight, the molar ratio of aFGF to ligand during these thermal denaturation experiments can be calculated. The Tm of aFGF as a function of the molar concentration of the hexasaccharide was measured by fluorescence spectroscopy. Fluorescence spectra were obtained with a Spex Fluorolog-2 spectrofiuorometer using a 1mm pathlength cuvette. Band passes from 1-2 nm were employed with sample absorptivities maintained below 0.1 at 280 nm. The temperature was controlled either manually or automatically as described above. Reproducibility of thermal denaturation temperatures (Tm) was ±2° C.
Analogous to the heparin experiments illustrated in Example 1 (FIG. 3), aFGF thermal stability was monitored by fluorescence spectroscopy as a function of concentration for several other of the polyanions. […] All samples contained 100 μg/ml of aFGF (6.3 μM) in a PBS buffer at pH 7.2.

Data set [3] relates to BALB/c 3T3 A31 fibroblasts. Description: Fibroblast mitogenic assay ([3H]-thymidine incorporation into DNA). Format: cell-based. Further details: Bioactivity (mitogenic activity of aFGF in the presence of ligand): unit not given here. The note with it: complete absence of heparin; < = response did not plateau; * = cell death observed. The method, then: Biological activity of the formulation of the instant invention is determined by a modification of the fibroblast mitogenic assay as described by Linemeyer et al. in European Patent Application, Publication No. 259,953. BALB/c 3T3 A31 fibroblasts (American Type Culture Collection) are plated at about 3×10^5 cells per 32 cm^2 wells in culture media containing about 10% heat-inactivated calf serum and incubated in about 7% CO2 (pH 7.35±0.05). The cells become fully quiescent by replacing the media with serum free media at about 6, about 24 hours and about 48 hours later. At about 53 hours after plating samples of the various formulations are added and about 0.12 μg of dexamethasone are added. At about 65 hours each well is supplemented with about 0.4 μCi of [methyl-^3 H]-thymidine (20 Ci/mmole, Dupont) and 0.6 μg of unlabeled thymidine (Sigma), and at 80 hours the cells are processed for determination of radiolabel incorporation into DNA. Each dose-response point is the average of at least quadruplicate determinations. Other cell types such vascular endothelial cells and corneal endothelial cells can be employed to determine in vitro mitogenicity. The procedures are described in detail by Thomas et al., Proc. Natl. Acad. Sci. USA 82:6409-6431 (1985).
^(d) Mitogenic activity of aFGF was measured in the presence of ligan
indicated in the complete absence of heparin.
*indicates cell death observed during assay.
Biological activity of the formulation of the instant invention was determined by a modification of the fibroblast mitogenic assay as described by Linemeyer et al. in European Patent Application, Publication No. 259,953. BALB/c 3T3 A31 fibroblasts (American Type Culture Collection) were plated at 3×10^5 cells per 32 cm^2 well in culture media containing about 10% heat-inactivated calf serum and incubated in 7% CO2 (pH 7.35±0.05). The cells become fully quiescent by replacing the media with serum free media at 6, 24 hours and 48 hours later. At 53 hours after plating samples of the various formulations were added and 0.12 μg of dexamethasone was added, at 65 hours each well was supplemented with 0.4 μCi of [methyl-^3 H]-thymidine (20 Ci/mmole, Dupont) and 0.6 μg of unlabeled thymidine (Sigma), and at 80 hours the cells were processed for determination of radiolabel incorporation into DNA. Each dose-response point is the average of at least quadruplicate determinations. Other cell types such vascular endothelial cells and corneal endothelial cells can be employed to determine in vitro mitogenidty. The procedures are described in detail by Thomas et al., Proc. Natl. Acad. Sci. USA 82:6409-6431 (1985).

The target in data set [4] is T1, aFGF. Description: Copper-catalyzed oxidation of aFGF thiol groups. Format: biochemical. The note with it: ligand 3X by weight; sodium sulfate 120 mM, tetrapolyphosphate 10 mM. The method, then:
Copper-catalyzed oxidation of aFGF is carried out in the following manner. Acidic FGF (about 80 μg/ml) is incubated in a 20 mM Tris, 0.15M potassium chloride, pH 8 solution containing about 20 μM cuptic chloride for varying periods of time at room temperature. The reaction was terminated by the addition of 100 mM EDTA in the same buffer. A solution of about 0.7 ml of 0.25M Tris (about pH 8) containing about 2 mM EDTA and about 7 M GuHC1 is then added followed by about 35 μl of 4 mg/ml of DTNB (Sigma). Samples were incubated for 30 minutes, filtered through a 0.22 micron filter and the optical density measured at about 412 nm to determine sulfhydryl content, Riddles et al., Meth. Enzymol. 9:49-60 (1983). Relative standard deviation of the obtained values during time course experiments is 12%.
Acidic FGF contains three free cysteine residues at positions […], 83 and 117 in the polypeptide chain. […] It has also been shown that the copper catalyzed oxidative formation of a disulfide bond in the wild-type aFGF inactivates the protein in an in vitro mitogenic assay, Ortega et al., J. Biol. Chem. 266:5842-5846 (1991). Therefore, it was of interest to determine the extent to which heparin can stabilize aFGF against inactivation by oxidation. […] Samples contained 80 μg/ml aFGF with (a) 3X heparin by weight, (b) 0.1X heparin by weight and (c) buffer alone. As heparin was introduced and its concentration increased, the rate of copper-catalyzed oxidation decreased. For example, after 20 minutes, greater than 95% of the cysteine residues of aFGF are protected from oxidation with 3X heparin. FIG. 4B illustrates the fraction of remaining reactive thiol groups after a 10-minute incubation with cupric chloride as a function of heparin concentration.
Some aggregation of aFGF occurs under the conditions of these experiments presumably due to at least partial intermolecular disulfide formation. Thus, these measurements could simply be a measurement of the loss of solubility induced by copper association with aFGF. Several experiments, however, argue against this possibility. First, previous work has shown that at dilute protein concentration, copper does indeed catalyze oxidation of thiol groups of aFGF, Ortega et al., J. Biol. Chem. 266:5842-5846 (199 1 ). Second, as a control experiment, the copper-catalyzed oxidation of aFGF was carded out in a buffer containing 6 M GuHCl. Under these denaturing conditions, nearly 100% of the thiol groups in solution were lost after 10 minutes without visible aggregation. […] Regardless of the precise mechanism, copper addition is a distinct mechanism of inactivation compared to thermal stress.
Similar protection against oxidation experiments were carried out with other negatively charged compounds with an excess of ligand (3X by weight except for sodium sulfate at 120 mM and tetrapolyphosphate at 10 mM) added to aFGF before copper catalyzed oxidation. As shown in the second column of Table 2, all of these agents at least partially protect the cysteine residues of aFGF from oxidation.
^(b) Percentage of aFGF thiols remaining in solution after 10 min
incubation with cupric chloride. Experimental conditions are described in
FIG. 10. All samples contained ligand at 3× (by weight) except
sodium sulfate (120 mM) and tetrapolyphosphate (10 mM).

Data set [5] in a line: Storage stability of aFGF formulations (protein mass and biological activity). To be noted: versus EDTA or EGTA. An excerpt: Stabilization of aFGF can be determined by several independent methods including turbidity measurements, spectroscopic techniques, maintenance of protein mass, mitogenic activity and copper catalyzed oxidation. Since acidic fibroblast growth factor is unstable at physiological temperatures (undergoing large structural changes, including aggregation, which results in a loss of mitogenic and wound healing activity), human aFGF stability can be monitored by evaluating the turbidity of the pharmaceutical composition by following the kinetics of temperature induced aggregation of unfolded protein.

T1 sequence (P05230 16-155 limits assumed): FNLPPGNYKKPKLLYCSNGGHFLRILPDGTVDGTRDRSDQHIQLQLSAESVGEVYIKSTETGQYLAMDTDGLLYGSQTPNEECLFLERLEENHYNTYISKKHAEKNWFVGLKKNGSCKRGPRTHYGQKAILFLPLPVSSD

As to `[Cl][Ir-3]([Cl])([Cl])([Cl])([Cl])[Cl]` [(IrCl6)^-3, reference compound], the “Tm of aFGF, circular dichroism” value at aFGF [1] (3X ligand by weight) amounted to 51 °C. Further, on aFGF [2] (3X ligand by weight), the “thermal melting temperature (Tm) of aFGF, fluorescence” value is 43 °C.
In the case of `O=S(=O)([O-])[O-].[Na+].[Na+]` [Sodium Sulfate, sodium sulfate], the “Tm of aFGF (maximum Tm induced by ligand), circular dichroism” value at aFGF [1] came to 57 °C. The “Bioactivity (mitogenic activity of aFGF in the presence of ligand)” value in data set [3] stood at 0. In addition, at aFGF [4], the “Cu Oxidation (% SH Lost in 10 Mins)” value was determined as 25%.
For `O=S(=O)(O)OC[C@H]1O[C@@](COS(=O)(=O)O)(O[C@H]2O[C@H](COS(=O)(=O)O)[C@@H](OS(=O)(=O)O)[C@H](OS(=O)(=O)O)[C@H]2OS(=O)(=O)O)[C@@H](OS(=O)(=O)O)[C@@H]1OS(=O)(=O)O` [Sucrose octasulfate, sucrose octasulfate], the “Tm of aFGF (maximum Tm induced by ligand), circular dichroism” value at aFGF [1] is 65 °C. Moreover, the “Bioactivity (mitogenic activity of aFGF in the presence of ligand)” value in data set [3] is reported as 2.5.
Turning to `O=C(O)CC(O)(CC(=O)O)C(=O)O` [citrate], the “effectiveness of chelating agent in stabilizing the aFGF-stabilizer-HEC combination” value in data set [5] was “not as effective as EDTA or EGTA”.
Consider `O=C(O)C1=C[C@H](O)[C@@H](OS(=O)(=O)O)[C@H](O[C@H]2[C@H](O)[C@@H](NS(=O)(=O)O)[C@@H](O)O[C@@H]2COS(=O)(=O)O)O1` [disaccharide, Δ.orgate.Ap2S(1→4)-α-D-GlcNp2S6S], for which the “effect of heparin fragment on Tm of aFGF” value on aFGF [2] (1:1 weight ratio, fluorescence and circular dichroism) was “did not influence the Tm of aFGF”.
As for `N[C@@H](Cc1c[nH]cn1)C(=O)O` [histidine], the “effectiveness of chelating agent in stabilizing the aFGF-stabilizer-HEC combination” value in data set [5] is given as “not as effective as EDTA or EGTA”.
Turning to sulfated γ-cyclodextrin, on aFGF [1], the “Tm of aFGF (maximum Tm induced by ligand), circular dichroism” value amounted to 70 °C. Besides, the “Cu Oxidation (% SH Lost in 10 Mins)” value at aFGF [4] was 5%.
